pIC50, pKi: −log10 of the molar value. Active and inactive are the calls of the source. The calls are words filed in the database; no cut-off is given here.
Columns and labels:
[1] = target: GABA B receptor (Rattus norvegicus) (UniProt Q9Z0U4+O88871); experiment: Inhibition of GABAB, Non-Selective at 10.0 µM in the Eurofins Panlabs Safety Screen; assay type: protein-complex assay; settings: Compound concentration 10.0 uM
[2] = target: T1, Muscarinic acetylcholine receptor M4 (Homo sapiens, UniProt P08173); experiment: GPCRScan assay: inhibition of M4; design: radioligand conc. used [nm] 0.3 – 1.0, parental cells stable CHO; settings: for pKi: read-out: Ki; for Ki: read-out: pKi (converted)
T1 sequence (P08173 whole entry): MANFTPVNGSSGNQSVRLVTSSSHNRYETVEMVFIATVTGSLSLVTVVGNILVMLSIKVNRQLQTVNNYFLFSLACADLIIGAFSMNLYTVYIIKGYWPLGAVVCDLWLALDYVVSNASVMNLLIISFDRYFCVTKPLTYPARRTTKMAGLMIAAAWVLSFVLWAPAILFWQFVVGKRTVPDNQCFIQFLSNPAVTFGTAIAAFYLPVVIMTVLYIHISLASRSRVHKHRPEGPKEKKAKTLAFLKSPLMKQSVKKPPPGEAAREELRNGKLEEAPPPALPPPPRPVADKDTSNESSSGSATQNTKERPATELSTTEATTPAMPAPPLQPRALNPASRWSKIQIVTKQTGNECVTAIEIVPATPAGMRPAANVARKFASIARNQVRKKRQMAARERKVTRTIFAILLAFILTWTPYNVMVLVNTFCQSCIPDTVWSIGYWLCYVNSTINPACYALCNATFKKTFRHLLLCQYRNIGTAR

[3] = target: Mu-type opioid receptor (Homo sapiens) (UniProt P35372); experiment: Inhibition of Opiate µ(OP3, MOP) at 10.0 µM in the Eurofins Panlabs Safety Screen; settings: Compound concentration 10.0 uM
Sequence of Mu-type opioid receptor (Homo sapiens) (P35372 whole entry): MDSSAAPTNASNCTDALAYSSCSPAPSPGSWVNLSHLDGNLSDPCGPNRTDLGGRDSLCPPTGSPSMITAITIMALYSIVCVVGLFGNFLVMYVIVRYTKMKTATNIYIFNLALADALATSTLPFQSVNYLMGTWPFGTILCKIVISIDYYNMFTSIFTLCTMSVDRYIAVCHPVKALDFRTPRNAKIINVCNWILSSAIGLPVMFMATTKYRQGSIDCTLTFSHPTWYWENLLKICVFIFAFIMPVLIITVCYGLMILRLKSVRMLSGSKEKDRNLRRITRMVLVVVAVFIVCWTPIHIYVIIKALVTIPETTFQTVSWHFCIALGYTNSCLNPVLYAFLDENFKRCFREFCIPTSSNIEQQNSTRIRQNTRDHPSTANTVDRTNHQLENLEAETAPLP

[4] = target: 5-hydroxytryptamine receptor 1D (Homo sapiens) (UniProt P28221); settings: Compound concentration 10.0 uM
Sequence of 5-hydroxytryptamine receptor 1D (Homo sapiens) (P28221 whole entry): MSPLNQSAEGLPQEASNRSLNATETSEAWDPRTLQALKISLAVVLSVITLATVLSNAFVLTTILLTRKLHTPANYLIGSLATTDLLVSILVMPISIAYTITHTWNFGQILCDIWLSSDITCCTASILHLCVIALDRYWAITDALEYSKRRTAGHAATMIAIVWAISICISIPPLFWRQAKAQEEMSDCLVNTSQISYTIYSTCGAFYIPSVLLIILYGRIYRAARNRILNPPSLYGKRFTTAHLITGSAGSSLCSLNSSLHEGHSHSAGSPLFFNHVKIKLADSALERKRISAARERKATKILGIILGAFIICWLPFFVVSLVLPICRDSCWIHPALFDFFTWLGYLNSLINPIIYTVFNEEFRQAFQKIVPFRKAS

[5] = target: Death-associated protein kinase 3 (Homo sapiens) (UniProt O43293); experiment: Inhibition of ZIPK(h) at 10.0 µM in the Eurofins Kinase panel; settings: Compound concentration 10.0 uM
[6] = target: T2, Sigma intracellular receptor 2 (Homo sapiens, UniProt Q5BJF2); settings: Compound concentration 10.0 uM
T2 sequence (Q5BJF2 whole entry): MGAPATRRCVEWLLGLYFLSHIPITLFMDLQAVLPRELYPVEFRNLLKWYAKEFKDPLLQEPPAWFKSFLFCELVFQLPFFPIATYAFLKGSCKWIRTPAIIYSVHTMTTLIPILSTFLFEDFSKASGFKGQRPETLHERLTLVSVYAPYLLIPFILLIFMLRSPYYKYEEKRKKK

[7] = target: T3, Alpha-2C adrenergic receptor (Homo sapiens) (UniProt P18825); settings: Compound concentration 10.0 uM
T3 sequence (whole entry): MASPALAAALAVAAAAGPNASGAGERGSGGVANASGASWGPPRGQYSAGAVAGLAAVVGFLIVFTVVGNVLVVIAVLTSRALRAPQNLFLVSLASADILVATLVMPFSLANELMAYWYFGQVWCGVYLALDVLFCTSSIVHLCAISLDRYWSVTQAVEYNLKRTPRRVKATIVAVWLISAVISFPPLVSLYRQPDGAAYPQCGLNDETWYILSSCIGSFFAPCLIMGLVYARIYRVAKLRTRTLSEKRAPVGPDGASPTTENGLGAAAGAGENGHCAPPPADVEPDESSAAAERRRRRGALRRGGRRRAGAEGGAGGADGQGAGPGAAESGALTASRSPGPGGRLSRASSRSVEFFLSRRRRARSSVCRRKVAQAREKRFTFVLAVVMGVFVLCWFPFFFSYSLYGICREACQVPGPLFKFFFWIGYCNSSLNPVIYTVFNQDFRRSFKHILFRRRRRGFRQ

[8] = target: Histamine H4 receptor (Homo sapiens) (UniProt Q9H3N8); settings: Compound concentration 10.0 uM
Sequence of Histamine H4 receptor (Homo sapiens) (Q9H3N8 whole entry): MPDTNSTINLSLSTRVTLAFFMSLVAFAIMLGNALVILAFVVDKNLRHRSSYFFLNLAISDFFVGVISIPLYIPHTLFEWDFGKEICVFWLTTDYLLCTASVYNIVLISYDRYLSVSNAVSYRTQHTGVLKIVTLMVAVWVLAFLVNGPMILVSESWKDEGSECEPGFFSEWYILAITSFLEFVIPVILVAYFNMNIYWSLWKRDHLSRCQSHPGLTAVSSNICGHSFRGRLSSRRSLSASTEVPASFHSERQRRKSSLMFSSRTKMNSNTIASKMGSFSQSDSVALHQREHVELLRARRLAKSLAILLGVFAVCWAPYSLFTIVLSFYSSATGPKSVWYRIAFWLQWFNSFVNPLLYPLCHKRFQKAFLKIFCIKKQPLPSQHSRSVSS

[9] = target: Serine/threonine-protein kinase DCLK2 (Homo sapiens) (UniProt Q8N568); experiment: Inhibition of DCAMKL2(h) at 10.0 µM in the Eurofins Kinase panel; settings: Compound concentration 10.0 uM
[10] = target: T4, Muscarinic acetylcholine receptor M2 (Homo sapiens) (UniProt P08172); settings: Compound concentration 10.0 uM
T4 sequence (whole entry): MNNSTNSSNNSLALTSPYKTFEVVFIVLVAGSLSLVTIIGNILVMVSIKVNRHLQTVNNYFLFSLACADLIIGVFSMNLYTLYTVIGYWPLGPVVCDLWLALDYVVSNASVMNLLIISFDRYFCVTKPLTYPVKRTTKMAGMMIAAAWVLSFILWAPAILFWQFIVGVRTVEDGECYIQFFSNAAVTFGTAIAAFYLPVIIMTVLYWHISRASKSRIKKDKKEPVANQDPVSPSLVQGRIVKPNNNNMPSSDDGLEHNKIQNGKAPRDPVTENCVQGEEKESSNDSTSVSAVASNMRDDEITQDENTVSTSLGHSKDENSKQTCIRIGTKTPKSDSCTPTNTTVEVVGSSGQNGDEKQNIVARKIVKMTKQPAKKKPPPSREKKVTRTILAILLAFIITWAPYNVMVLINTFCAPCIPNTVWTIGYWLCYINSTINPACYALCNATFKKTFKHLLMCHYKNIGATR

[11] = target: Neuronal acetylcholine receptor; alpha3/beta4 (Homo sapiens) (UniProt P30926+P32297); experiment: Inhibition of Nicotinic Acetylcholine alpha3beta4 at 10.0 µM in the Eurofins Panlabs Safety Screen; assay type: protein-complex assay; settings: Compound concentration 10.0 uM
[12] = target: T5, Methionine aminopeptidase 2 (Homo sapiens, UniProt P50579); experiment: METAP2 biochemical assay (human)
Target sequence in this assay (P50579 whole entry): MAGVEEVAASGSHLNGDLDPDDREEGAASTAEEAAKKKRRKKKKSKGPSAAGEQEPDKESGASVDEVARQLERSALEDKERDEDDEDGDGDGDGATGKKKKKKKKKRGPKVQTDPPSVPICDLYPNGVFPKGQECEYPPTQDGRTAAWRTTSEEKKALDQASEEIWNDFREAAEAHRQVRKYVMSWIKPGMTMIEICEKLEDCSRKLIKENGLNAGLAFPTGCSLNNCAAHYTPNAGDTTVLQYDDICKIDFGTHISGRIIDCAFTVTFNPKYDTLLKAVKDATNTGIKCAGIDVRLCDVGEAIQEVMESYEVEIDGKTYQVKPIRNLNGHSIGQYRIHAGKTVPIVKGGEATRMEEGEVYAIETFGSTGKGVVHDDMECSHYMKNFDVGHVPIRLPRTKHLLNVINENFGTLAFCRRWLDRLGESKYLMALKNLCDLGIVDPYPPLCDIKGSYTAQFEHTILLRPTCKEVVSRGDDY

[13] = target: Type-2 angiotensin II receptor (Homo sapiens) (UniProt P50052); experiment: Inhibition of Angiotensin AT2 at 10.0 µM in the Eurofins Panlabs Safety Screen; settings: Compound concentration 10.0 uM
Sequence of Type-2 angiotensin II receptor (Homo sapiens) (P50052 whole entry): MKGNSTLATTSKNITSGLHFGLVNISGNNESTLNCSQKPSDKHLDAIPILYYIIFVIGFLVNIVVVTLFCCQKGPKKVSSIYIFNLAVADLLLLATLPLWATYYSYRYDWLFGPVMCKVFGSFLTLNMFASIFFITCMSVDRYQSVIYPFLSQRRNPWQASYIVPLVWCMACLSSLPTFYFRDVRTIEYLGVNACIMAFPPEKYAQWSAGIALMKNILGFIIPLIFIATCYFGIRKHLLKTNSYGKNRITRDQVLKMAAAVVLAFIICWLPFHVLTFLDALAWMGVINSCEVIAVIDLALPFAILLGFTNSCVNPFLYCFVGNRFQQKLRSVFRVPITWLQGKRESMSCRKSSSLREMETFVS

[14] = target: 5-hydroxytryptamine receptor 1B (Homo sapiens) (UniProt P28222); settings: Compound concentration 10.0 uM
Sequence of 5-hydroxytryptamine receptor 1B (Homo sapiens) (P28222 whole entry): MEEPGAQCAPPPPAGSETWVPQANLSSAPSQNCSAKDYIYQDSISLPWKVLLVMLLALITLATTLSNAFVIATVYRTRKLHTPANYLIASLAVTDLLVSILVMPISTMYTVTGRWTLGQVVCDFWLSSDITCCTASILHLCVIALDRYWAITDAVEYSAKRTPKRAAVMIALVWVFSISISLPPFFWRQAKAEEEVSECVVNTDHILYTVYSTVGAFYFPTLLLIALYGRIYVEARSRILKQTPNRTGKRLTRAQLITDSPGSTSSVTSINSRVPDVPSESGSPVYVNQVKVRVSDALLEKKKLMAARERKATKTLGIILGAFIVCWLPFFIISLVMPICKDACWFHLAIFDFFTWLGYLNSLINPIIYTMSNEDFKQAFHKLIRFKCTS

[15] = target: Leukotriene C4 synthase (Cavia porcellus) (UniProt A6XA80); experiment: Inhibition of Leukotriene LTC4 Synthase at 10.0 µM in the Eurofins Panlabs Safety Screen; settings: Compound concentration 10.0 uM
Sequence of Leukotriene C4 synthase (Cavia porcellus) (A6XA80 whole entry): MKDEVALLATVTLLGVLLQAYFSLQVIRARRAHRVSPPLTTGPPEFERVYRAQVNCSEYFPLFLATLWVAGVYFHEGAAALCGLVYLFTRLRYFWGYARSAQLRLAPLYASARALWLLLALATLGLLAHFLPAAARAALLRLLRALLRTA

[16] = target: Purinergic P2Y (Rattus norvegicus) (UniProt O35811+Q9EPX4+P49651+Q63371+P41232+O35881+Q6GUG4); experiment: Inhibition of Purinergic P2Y, non-selective at 10.0 µM in the Eurofins Panlabs Safety Screen; assay type: protein assay; settings: Compound concentration 10.0 uM
[17] = target: cGMP-inhibited 3',5'-cyclic phosphodiesterase 3A (Homo sapiens) (UniProt Q14432); experiment: Inhibition of Phosphodiesterase PDE3A at 10.0 µM in the Eurofins Panlabs Safety Screen; settings: Compound concentration 10.0 uM
Sequence of cGMP-inhibited 3',5'-cyclic phosphodiesterase 3A (Homo sapiens) (Q14432 whole entry): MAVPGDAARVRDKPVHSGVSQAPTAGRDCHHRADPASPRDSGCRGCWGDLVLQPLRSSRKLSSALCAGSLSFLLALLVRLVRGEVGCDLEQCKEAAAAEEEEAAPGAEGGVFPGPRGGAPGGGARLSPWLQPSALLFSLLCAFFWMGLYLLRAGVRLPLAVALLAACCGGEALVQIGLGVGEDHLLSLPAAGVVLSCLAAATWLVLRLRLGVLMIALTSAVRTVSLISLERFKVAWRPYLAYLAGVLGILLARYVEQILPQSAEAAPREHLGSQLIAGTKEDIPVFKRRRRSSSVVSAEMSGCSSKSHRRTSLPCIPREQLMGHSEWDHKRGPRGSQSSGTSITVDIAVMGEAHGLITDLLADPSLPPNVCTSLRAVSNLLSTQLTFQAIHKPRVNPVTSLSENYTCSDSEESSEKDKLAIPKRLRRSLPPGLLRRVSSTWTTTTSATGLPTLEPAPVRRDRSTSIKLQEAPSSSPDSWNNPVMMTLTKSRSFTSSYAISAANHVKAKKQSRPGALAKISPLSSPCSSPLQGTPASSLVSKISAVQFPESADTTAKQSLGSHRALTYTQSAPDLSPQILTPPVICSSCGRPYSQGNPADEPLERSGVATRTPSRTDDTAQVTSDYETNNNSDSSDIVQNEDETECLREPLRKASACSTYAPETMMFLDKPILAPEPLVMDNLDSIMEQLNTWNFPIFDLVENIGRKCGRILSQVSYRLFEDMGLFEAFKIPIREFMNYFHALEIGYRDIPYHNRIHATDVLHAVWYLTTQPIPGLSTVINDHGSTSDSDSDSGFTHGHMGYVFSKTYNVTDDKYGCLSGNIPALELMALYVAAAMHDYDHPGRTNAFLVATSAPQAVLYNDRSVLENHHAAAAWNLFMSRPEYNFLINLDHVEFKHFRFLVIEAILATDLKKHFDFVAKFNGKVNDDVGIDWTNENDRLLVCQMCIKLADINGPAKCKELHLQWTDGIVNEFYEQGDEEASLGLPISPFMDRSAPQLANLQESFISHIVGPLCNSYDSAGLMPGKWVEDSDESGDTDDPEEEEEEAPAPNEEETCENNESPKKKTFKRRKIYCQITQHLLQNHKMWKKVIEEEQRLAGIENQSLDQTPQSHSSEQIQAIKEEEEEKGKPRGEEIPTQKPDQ

[18] = target: T2, Sigma intracellular receptor 2; experiment: GPCRScan assay: inhibition of Sigma 2; design: radioligand conc. used [nm] 5.0, parental cells HEKT; settings: for pKi: read-out: Ki; for Ki: read-out: pKi (converted)
[19] = target: Endothelin-1 receptor (Homo sapiens) (UniProt P25101); experiment: Inhibition of Endothelin ETA at 10.0 µM in the Eurofins Panlabs Safety Screen; settings: Compound concentration 10.0 uM
Sequence of Endothelin-1 receptor (Homo sapiens) (P25101 whole entry): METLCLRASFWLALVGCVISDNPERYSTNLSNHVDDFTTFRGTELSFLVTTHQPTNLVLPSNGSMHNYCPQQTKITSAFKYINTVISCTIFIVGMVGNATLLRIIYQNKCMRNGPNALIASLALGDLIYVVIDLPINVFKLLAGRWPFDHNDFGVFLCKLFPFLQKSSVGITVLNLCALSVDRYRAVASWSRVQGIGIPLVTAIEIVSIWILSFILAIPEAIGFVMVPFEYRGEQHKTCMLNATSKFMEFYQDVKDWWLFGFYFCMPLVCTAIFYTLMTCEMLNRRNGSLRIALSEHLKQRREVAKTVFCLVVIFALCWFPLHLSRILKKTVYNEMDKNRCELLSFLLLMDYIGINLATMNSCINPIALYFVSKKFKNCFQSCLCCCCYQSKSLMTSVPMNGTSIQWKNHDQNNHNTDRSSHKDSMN

[20] = target: T5, Methionine aminopeptidase 2; experiment: Degradation in HT1080 cells (CE) Dmax (Capillary electrophoresis (CE)); assay type: functional, cell-based; settings: HT-1080
[21] = target: Beta-1 adrenergic receptor (Homo sapiens) (UniProt P08588); settings: Compound concentration 10.0 uM
Sequence of Beta-1 adrenergic receptor (Homo sapiens) (P08588 whole entry, looked up): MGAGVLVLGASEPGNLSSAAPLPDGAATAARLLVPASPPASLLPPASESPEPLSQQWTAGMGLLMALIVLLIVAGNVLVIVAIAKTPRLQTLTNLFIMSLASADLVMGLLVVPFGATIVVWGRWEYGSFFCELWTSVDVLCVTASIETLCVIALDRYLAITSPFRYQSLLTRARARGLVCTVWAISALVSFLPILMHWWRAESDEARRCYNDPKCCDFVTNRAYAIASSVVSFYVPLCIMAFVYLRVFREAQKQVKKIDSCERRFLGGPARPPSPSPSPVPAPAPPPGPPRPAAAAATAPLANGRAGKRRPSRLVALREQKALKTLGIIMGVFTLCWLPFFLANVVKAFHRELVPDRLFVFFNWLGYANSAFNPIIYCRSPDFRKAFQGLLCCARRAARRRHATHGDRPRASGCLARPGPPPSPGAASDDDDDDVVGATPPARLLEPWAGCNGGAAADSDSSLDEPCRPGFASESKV

[22] = target: Serine/threonine-protein kinase Sgk2 (Homo sapiens) (UniProt Q9HBY8); experiment: Inhibition of SGK2(h) at 10.0 µM in the Eurofins Kinase panel; settings: Compound concentration 10.0 uM
[23] = target: Tyrosine-protein kinase Yes (Homo sapiens) (UniProt P07947); experiment: Inhibition of Yes(h) at 10.0 µM in the Eurofins Kinase panel; settings: Compound concentration 10.0 uM

Row | Structure (SMILES) | inhibition [1] | pKi [2] | Ki [2] | inhibition [3] | inhibition [4] | inhibition [5] | inhibition [6] | inhibition [7] | inhibition [8] | inhibition [10] | inhibition [11] | pIC50 [12] | inhibition [13] | inhibition [14] | inhibition [15] | inhibition [16] | inhibition [17] | pKi [18] | Ki [18] | inhibition [19] | IC50 [12] | further results
1 | O=C1NCCCC1N1Cc2cc(C3CCN(C(=O)CCCCCN4CCC(c5ccc(Oc6nn7cnnc7c7c6CCCC7)cc5)CC4)CC3)ccc2C1=O (stereo not given) | 22% | 6.05 | 891 nM | 16% | 37.4% | 15.9% | 76.4% | 27.5% | -3.44% | 57.2% | 6% | 8.24 | 17% | 14.2% | 15% | 12% | 6% | 5.94 | 977 nM | 3% | – | inhibition [9]: 12%
2 | O=C1CCC(N2Cc3cc(C4CCN(C(=O)CCCCCN5CCC(c6ccc(Oc7nn8cnnc8c8c7CCCC8)cc6)CC5)CC4)ccc3C2=O)C(=O)N1 (stereo not given) | 15% | 6.20 | 617 nM | 19% | 48.5% | 11.7% | 75.9% | 47.9% | -8.84% | 64.3% | 24% | – | 13% | 21.9% | 2% | 4% | 6% | 6.06 | 832 nM | -1% | 5.8 nM (active) | Dmax [20]: 88.5%; inhibition [21]: 0.81%; inhibition [22]: 16.5%; inhibition [23]: 10.9%
